PubChem BioAssay (NCI)
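Results reflect a 48-hour exposure of cells in 96-well plates to compound at five concentrations. GI50 = concentration required for 50% inhibition of growth. TGI denotes the concentration required for complete inhibition of growth.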

Legend:
Assay in all cases: growth of human tumour cells (NCI), 48 h
SR leukemia = tested on: SR leukemia
UO-31 renal = tested on: UO-31 renal
HCC-2998 colon = tested on: HCC-2998 colon
SK-MEL-5 melanoma = tested on: SK-MEL-5 melanoma
T-47D breast = tested on: T-47D breast
A549 NSCLC = tested on: A549 NSCLC
SNB-19 CNS = tested on: SNB-19 CNS
RPMI-8226 leukemia = tested on: RPMI-8226 leukemia
OVCAR-4 ovarian = tested on: OVCAR-4 ovarian
HOP-92 NSCLC = tested on: HOP-92 NSCLC

SMILES	GI50 (SR leukemia)	TGI (SR leukemia)	GI50 (UO-31 renal)	TGI (UO-31 renal)	GI50 (HCC-2998 colon)	TGI (HCC-2998 colon)	GI50 (SK-MEL-5 melanoma)	TGI (SK-MEL-5 melanoma)	GI50 (T-47D breast)	TGI (T-47D breast)	GI50 (A549 NSCLC)	TGI (A549 NSCLC)	GI50 (SNB-19 CNS)	TGI (SNB-19 CNS)	GI50 (RPMI-8226 leukemia)	TGI (RPMI-8226 leukemia)	GI50 (OVCAR-4 ovarian)	TGI (OVCAR-4 ovarian)	GI50 (HOP-92 NSCLC)	TGI (HOP-92 NSCLC)
Oc1ccc(-c2nnc3sc(-c4ccc(F)c(Oc5ccccc5)c4)nn23)cc1	29.9 µM	> 100 µM	5.62 µM	> 100 µM	73.2 µM	> 100 µM	18.6 µM	> 100 µM	16.4 µM	76.3 µM	30.9 µM	> 100 µM	34.6 µM	> 100 µM	28.4 µM	> 100 µM	> 100 µM	> 100 µM	26.1 µM	> 100 µM
Cc1nn(-c2nc3ccccc3s2)c(C)c1Oc1ccccc1O	0.536 µM	2.05 µM	4.44 µM	18.6 µM	5.73 µM	18.9 µM	1.3 µM	15.3 µM	8.63 µM	34.4 µM	6.14 µM	22.5 µM	6.77 µM	20.3 µM	8.13 µM	34.8 µM	10.3 µM	29.5 µM	0.162 µM	16.6 µM
C=C1C(=O)O[C@@H]2C[C@@]3(C)CCC[C@H](C)C3=C[C@H]12	–	4.78 µM	–	17.1 µM	–	29.1 µM	–	17.9 µM	–	9.36 µM	–	31 µM	–	30.1 µM	–	6.21 µM	–	17.6 µM	–	11.2 µM
C1=Cc2ccccc2Nc2ccccc21	> 100 µM	> 100 µM	> 100 µM	> 100 µM	> 100 µM	> 100 µM	> 100 µM	> 100 µM	> 100 µM	> 100 µM	> 100 µM	> 100 µM	> 100 µM	> 100 µM	> 100 µM	> 100 µM	> 100 µM	> 100 µM	86.1 µM	> 100 µM
CCOc1c(Br)cc(C2C(C(=O)OC)=CN(C)C=C2C(=O)OC)cc1OC	30.6 µM	> 100 µM	28.8 µM	> 100 µM	> 100 µM	> 100 µM	40.5 µM	> 100 µM	45.9 µM	> 100 µM	47.8 µM	> 100 µM	83.8 µM	> 100 µM	45.5 µM	> 100 µM	54.1 µM	> 100 µM	33.4 µM	> 100 µM
COc1ccc(CCN2C(=O)C=CC2=O)cc1OC	–	6.7 µM	–	3.05 µM	–	34.8 µM	–	31.5 µM	–	31.9 µM	–	50.2 µM	–	37.2 µM	–	3.18 µM	–	5.07 µM	–	40.1 µM
COc1cc(NS(C)(=O)=O)ccc1Nc1c2ccc(Cl)cc2nc2c(OC)cccc12	< 0.0109 µM	10.2 µM	0.0466 µM	0.698 µM	0.826 µM	5.23 µM	0.129 µM	3.97 µM	0.0826 µM	3.37 µM	0.0135 µM	1.35 µM	0.135 µM	22.3 µM	0.595 µM	–	2.32 µM	16.7 µM	0.0765 µM	2.48 µM
